Laboratory results published in patent US10392404B2, “Compounds and compositions as kinase inhibitors” (NOVARTIS AG, priority 2014, dated 2019).

Experiments:
C-RAF = biological target: T1, C-RAF (Homo sapiens, UniProt P04049, Y340E/Y341E); test: In vitro Raf activity determination (Alpha Screen, biotinylated kinase-dead MEK1 substrate), C-Raf; type: biochemical; conditions: c-Raf approximately 4 nM; ATP 1 μM; pre-incubation 60 minutes; reaction 1 hour at room temperature
T1 construct: His tag (implied by nickel chromatography) (cleaved yes); StrepII tag (cleaved yes); made in house; host or cells: Sf9 insect cells (baculovirus), CRAF and h14-3-3 zeta co-expressed; MEK1 substrate from E. coli
T1 sequence (P04049 whole entry Y340E/Y341E): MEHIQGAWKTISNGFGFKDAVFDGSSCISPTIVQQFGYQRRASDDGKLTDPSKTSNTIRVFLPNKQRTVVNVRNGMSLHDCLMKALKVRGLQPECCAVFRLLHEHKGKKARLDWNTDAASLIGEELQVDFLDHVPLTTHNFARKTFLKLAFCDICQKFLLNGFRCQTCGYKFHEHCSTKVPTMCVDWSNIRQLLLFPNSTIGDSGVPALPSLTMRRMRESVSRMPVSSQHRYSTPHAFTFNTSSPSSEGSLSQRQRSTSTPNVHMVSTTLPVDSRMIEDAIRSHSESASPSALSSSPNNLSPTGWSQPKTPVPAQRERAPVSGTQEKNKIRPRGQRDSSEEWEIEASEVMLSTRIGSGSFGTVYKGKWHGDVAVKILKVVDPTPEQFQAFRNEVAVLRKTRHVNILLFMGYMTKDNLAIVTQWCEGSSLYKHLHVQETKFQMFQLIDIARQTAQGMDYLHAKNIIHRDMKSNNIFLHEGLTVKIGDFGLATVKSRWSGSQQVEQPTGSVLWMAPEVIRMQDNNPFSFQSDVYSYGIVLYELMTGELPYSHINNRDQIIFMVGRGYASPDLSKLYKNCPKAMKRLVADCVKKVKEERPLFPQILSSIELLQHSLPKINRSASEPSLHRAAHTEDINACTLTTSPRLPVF
T1 sequence (P63104 whole entry partner): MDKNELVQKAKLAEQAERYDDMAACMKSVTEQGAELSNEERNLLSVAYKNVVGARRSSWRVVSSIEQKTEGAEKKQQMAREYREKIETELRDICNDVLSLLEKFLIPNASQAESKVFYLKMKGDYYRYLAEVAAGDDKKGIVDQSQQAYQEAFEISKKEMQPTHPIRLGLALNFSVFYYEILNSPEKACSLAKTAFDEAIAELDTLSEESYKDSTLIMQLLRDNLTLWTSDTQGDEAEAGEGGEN
Summary of the method: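 AlphaScreen read-out of MEK phosphorylation using an anti-phospho-MEK1/2 antibody after a 1 hour room-temperature reaction at 1 μM ATP. Enzyme: approximately 4 nM Sf9-expressed full-length activated C-Raf (Y340E/Y341E, with 14-3-3ζ) on approximately 10 nM biotinylated K97R MEK1, after 60 min compound preincubation. IC50 by non-linear fit.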

b-Raf (V600E) = biological target: T2, b-Raf (V600E) (Homo sapiens, UniProt P15056, V600E); test: In vitro Raf activity determination (Alpha Screen, biotinylated kinase-dead MEK1 substrate), B-Raf; type: biochemical; conditions: b-Raf (V600E) approximately 4 pM; ATP 10 μM; pre-incubation 60 minutes; reaction 3 hours at room temperature
T2 construct: made in house
T2 sequence (P15056 whole entry V600E): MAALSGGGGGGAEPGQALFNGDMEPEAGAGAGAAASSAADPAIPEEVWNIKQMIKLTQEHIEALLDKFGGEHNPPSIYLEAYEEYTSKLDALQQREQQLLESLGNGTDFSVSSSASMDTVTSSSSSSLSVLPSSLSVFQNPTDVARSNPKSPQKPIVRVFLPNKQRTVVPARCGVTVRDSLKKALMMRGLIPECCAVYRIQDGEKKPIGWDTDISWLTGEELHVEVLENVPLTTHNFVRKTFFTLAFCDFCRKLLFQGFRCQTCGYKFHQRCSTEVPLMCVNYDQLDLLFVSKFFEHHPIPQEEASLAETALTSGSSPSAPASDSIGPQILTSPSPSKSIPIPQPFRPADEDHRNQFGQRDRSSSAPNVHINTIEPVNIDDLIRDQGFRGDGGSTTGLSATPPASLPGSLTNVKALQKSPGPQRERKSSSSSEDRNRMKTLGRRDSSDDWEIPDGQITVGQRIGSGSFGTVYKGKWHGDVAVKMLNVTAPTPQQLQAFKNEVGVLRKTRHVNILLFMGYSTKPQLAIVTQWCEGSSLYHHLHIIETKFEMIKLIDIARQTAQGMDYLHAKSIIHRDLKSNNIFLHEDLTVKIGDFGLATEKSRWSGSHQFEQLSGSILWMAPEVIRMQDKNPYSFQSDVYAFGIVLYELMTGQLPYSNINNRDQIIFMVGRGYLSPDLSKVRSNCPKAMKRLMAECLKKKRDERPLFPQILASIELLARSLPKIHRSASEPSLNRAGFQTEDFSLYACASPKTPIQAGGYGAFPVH
Summary of the method: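 IC50 from non-linear regression of AlphaScreen phospho-MEK signal (anti-p-MEK1/2 antibody). b-Raf(V600E), about 4 pM, phosphorylated ~10 nM biotinylated K97R MEK1 with 10 μM ATP for 3 h at room temperature after 60 min compound pre-incubation; buffer pH 7.5 Tris, 15 mM MgCl2, 1 mM DTT.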

Structure (SMILES) | IC50 (C-RAF) | IC50 (b-Raf (V600E))
Cc1cn(-c2ncc(-c3cc(NC(=O)c4ccnc(C(C)(C)C#N)c4)cnc3C)cc2C#N)cn1 [Example 84, N-(5′-cyano-2-methyl-6′-(4-methyl-1H-imidazol-1-yl)-[3,3′-bipyridin]-5-yl)-2-(2-cyanopropan-2-yl)isonicotinamide] | 5.1 nM | 25.1 nM
Cc1ncc(NC(=O)c2cccc(C(F)(F)F)c2)cc1-c1cnc(N2CCS(=O)(=O)CC2)c(C#N)c1 [Example 85, N-(5′-cyano-6′-(1,1-dioxidothiomorpho-lino)-2-methyl-[3,3′-bipyridin]-5-yl)-3-(trifluoromethyl) benzamide] | 0.227 nM | 1.33 nM
Cc1ncc(NC(=O)c2ccnc(C(F)(F)F)c2)cc1-c1cnc(N2CCS(=O)(=O)CC2)c(C#N)c1 [Example 86, N-(5′-cyano-6′-(1,1-dioxidothiomorpho-lino)-2-methyl-[3,3′-bipyridin]-5-yl)-2-(trifluoromethyl) isonicotinamide] | 0.438 nM | 2.98 nM
Cc1ncc(NC(=O)c2ccnc(C(C)(C)C#N)c2)cc1-c1cnc(N2CCOC[C@@H]2C)c(C#N)c1 [Example 87, (S)-N-(5′-cyano-2-methyl-6′-(3-methylmorpholino)-[3,3′-bipyridin]-5-yl)-2-(2-cyanopropan-2-yl)isonicotinamide] | 1.15 nM | 3.02 nM
Cc1ncc(NC(=O)c2ccnc(C(C)(C)C#N)c2)cc1-c1cnc(N2C[C@H]3CC[C@@H](C2)O3)c(C#N)c1 [Example 88, N-(6′-((1R,5S)-8-oxa-3-azabicyclo[3,2,1]octan-3-yl)-5′-cyano-2-methyl-[3,3′-bipyridin]-5-yl)-2-(2-cyanopropan-2-yl)isonicotinamide] | 0.612 nM | 2.04 nM
Cc1ncc(NC(=O)c2ccnc(C(C)(C)C#N)c2)cc1-c1cnc(N2CCOC(C)(C)C2)c(C#N)c1 [Example 89, N-(5′-cyano-6′-(2,2-dimethylmorpholino)-2-methyl-[3,3′-bipyridin]-5-yl)-2-(2-cyanopropan-2-yl)isonicotinamide] | 1.02 nM | 3.42 nM
Cc1ncc(NC(=O)c2ccnc(C(C)(C)C#N)c2)cc1-c1cnc(N2C[C@H]3C[C@@H]2CO3)c(C#N)c1 [Example 90, N-(6′-((1R,4R)-2-oxa-5-azabicyclo[2.2.1]heptan-5-yl)-5′-cyano-2-methyl-[3,3′-bipyridin]-5-yl)-2-(2-cyanopropan-2-yl)isonicotinamide] | 2.1 nM | 8.94 nM
Cc1ncc(NC(=O)c2ccnc(C(C)(C)C#N)c2)cc1-c1cnc(N2[C@@H]3CC[C@H]2COC3)c(C#N)c1 [Example 91, N-(6′-((1R,5S)-3-oxa-8-azabicyclo[3.2.1]octan-8-yl)-5′-cyano-2-methyl-[3,3′-bipyridin]-5-yl)-2-(2-cyanopropan-2-yl)isonicotinamide] | 1.01 nM | 3.62 nM
COCCOc1ncc(-c2cc(NC(=O)c3ccnc(C(F)(F)F)c3)cnc2C)cc1C#N [Example 93, N-(5′-cyano-6′-(2-methoxyethoxy)-2-methyl-[3,3′-bipyridin]-5-yl)-2-(trifluoromethyl) isonicotinamide] | 1.75 nM | 6.84 nM
Cc1ncc(NC(=O)c2ccnc(C(C)(C)C#N)c2)cc1-c1cnc(OC2COC2)c(C#N)c1 [Example 94, N-(5′-cyano-2-methyl-6′-(oxetan-3-yloxy)-[3,3′-bipyridin]-5-yl)-2-(2-cyanopropan-2-yl)isonicotinamide] | 5.98 nM | 23.6 nM
Cc1ncc(NC(=O)c2ccnc(C(F)(F)F)c2)cc1-c1cnc(OC2COC2)c(C#N)c1 [Example 95, N-(5′-cyano-2-methyl-6′-(oxetan-3-yloxy)-[3,3′-bipyridin]-5-yl)-2-(trifluoromethyl) isonicotinamide] | 2.34 nM | 12.8 nM
Cc1ncc(NC(=O)c2ccnc(C(C)(C)C#N)c2)cc1-c1cnc(OC(C)C)c(C#N)c1 [Example 96, N-(5′-cyano-6′-isopropoxy-2-methyl-[3,3′-bipyridin]-5-yl)-2-(2-cyanopropan-2-yl)isonicotinamide] | 3.53 nM | 11.9 nM
Cc1ncc(NC(=O)c2ccnc(C(C)(C)C#N)c2)cc1-c1cnc(OCCO)c(C#N)c1 [Example 98, N-(5′-cyano-6′-(2-hydroxyethoxy)-2-methyl-[3,3′-bipyridin]-5-yl)-2-(2-cyanopropan-2-yl)isonicotinamide] | 9.21 nM | 74.3 nM
Cc1ncc(NC(=O)c2cccc(C(F)(F)F)c2)cc1-c1cnc(OCCO)c(C#N)c1 [Example 99, N-(5′-cyano-6′-(2-hydroxyethoxy)-2-methyl-[3,3′-bipyridin]-5-yl)-3-(trifluoromethyl) benzamide] | 0.712 nM | 5.8 nM
Cc1ncc(NC(=O)c2ccnc(C(F)(F)F)c2)cc1-c1cnc(-c2ccn(C)c(=O)c2)c(C#N)c1 [Example 102, N-(5′-cyano-1″,2-dimethyl-2″-oxo-1″,2″-dihydro-[3,3′:6′,4″- terpyridin]-5-yl)-2-(trifluoromethyl) isonicotinamide] | 0.66 nM | 3.14 nM
Cc1ncc(NC(=O)c2ccnc(C(C)(C)C#N)c2)cc1-c1cnc(-c2ccn(C)c(=O)c2)c(C#N)c1 [Example 103, N-(5′-cyano-1″,2-dimethyl-2″-oxo-1″,2″-dihydro-[3,3′:6′,4″- terpyridin]-5-yl)-2-(2-cyanopropan-2-yl)isonicotinamide] | 4.21 nM | 22.5 nM
Cc1ncc(NC(=O)c2ccnc(C(F)(F)F)c2)cc1-c1cnc(-c2cccnc2)c(C#N)c1 [Example 104, N-(3′-cyano-2″- methyl-[3,2′:5′,3″- terpyridin]-5″-yl)-2-(trifluoromethyl) isonicotinamide] | 0.594 nM | 3.16 nM
Cc1ncc(NC(=O)c2ccnc(C(C)(C)C#N)c2)cc1-c1cnc(-c2ccc(=O)n(C)c2)c(C#N)c1 [Example 105, N-(3′-cyano-1,2″- dimethyl-6-oxo-1,6-dihydro-[3,2′:5′,3″- terpyridin]-5″-yl)-2-(2-cyanopropan-2-yl)isonicotinamide] | 2.75 nM | 18 nM
Cc1ncc(NC(=O)c2cccc(C(F)(F)F)c2)cc1-c1cnc(-c2ccncc2)c(C#N)c1 [Example 106, N-(5′-cyano-2-methyl-[3,3′:6′,4″- terpyridin]-5-yl)-3-(trifluoromethyl) benzamide] | 0.391 nM | 2.19 nM
Cc1ncc(NC(=O)c2ccnc(C(C)(C)C#N)c2)cc1-c1cnc(-c2ccncc2)c(C#N)c1 [Example 107] | 2.16 nM | 9.07 nM
Cc1ncc(NC(=O)c2ccnc(C(C)(C)C#N)c2)cc1-c1cnc(-c2cccnc2)c(C#N)c1 [Example 108, N-(3′-cyano-2″- methyl-[3,2′:5′,3″- terpyridin]-5″-yl)-2-(2-cyanopropan-2-yl)isonicotinamide] | 2.66 nM | 13.7 nM
Cc1ncc(NC(=O)c2ccnc(C(C)(C)C#N)c2)cc1-c1cnc(-c2ccn(C)n2)c(C#N)c1 [Example 109, N-(5′-cyano-2-methyl-6′-(1-methyl-1H-pyrazol-3-yl)-[3,3′-bipyridin]-5-yl)-2-(2-cyanopropan-2-yl)isonicotinamide] | 2.74 nM | 20 nM
Cc1ncc(NC(=O)c2ccnc(C(F)(F)F)c2)cc1-c1cnc(-c2cn(C)nc2C)c(C#N)c1 [Example 111, N-(5′-cyano-6′-(1,3-dimethyl-1H-pyrazol-4-yl)-2-methyl-[3,3′-bipyridin]-5-yl)-2-(trifluoromethyl) isonicotinamide] | 0.397 nM | 1.46 nM
Cc1ncc(NC(=O)c2ccnc(C(F)(F)F)c2)cc1-c1cnc(-c2c(C)nn(C)c2C)c(C#N)c1 [Example 112, N-(5′-cyano-2-methyl-6′-(1,3,5-trimethyl-1H-pyrazol-4-yl)-[3,3′-bipyridin]-5-yl)-2-(trifluoromethyl) isonicotinamide] | 3.51 nM | 17.6 nM
Cc1ncc(NC(=O)c2ccnc(C(C)(C)C#N)c2)cc1-c1cnc(-c2cn(C)nc2C)c(C#N)c1 [Example 113, N-(5′-cyano-6′-(1,3-dimethyl-1H-pyrazol-4-yl)-2-methyl-[3,3′-bipyridin]-5-yl)-2-(2-cyanopropan-2-yl)isonicotinamide] | 1.79 nM | 6.26 nM
Cc1ncc(NC(=O)c2ccnc(C(C)(C)C#N)c2)cc1-c1cnc(-c2c(C)nn(C)c2C)c(C#N)c1 [Example 114, N-(5′-cyano-2-methyl-6′-(1,3,5-trimethyl-1H-pyrazol-4-yl)-[3,3′-bipyridin]-5-yl)-2-(2-cyanopropan-2-yl)isonicotinainide] | 8.18 nM | 32.1 nM
Cc1ncc(NC(=O)c2ccnc(C(C)(C)C#N)c2)cc1-c1cnc(-c2ccnnc2)c(C#N)c1 [Example 115] | 11.5 nM | 70.6 nM
Cc1ccc(NC(=O)c2cccc(C(F)(F)F)c2)cc1-c1cnc(-n2ccc(=O)cc2)c(C#N)c1 [Example 118, N-(3-(3′-cyano-4-oxo-4H-[1,2′-bipyridin]-5′-yl)-4-methylphenyl)-3-(trifluoromethyl) benzamide] | 0.768 nM | 5.57 nM
Cc1ccc(NC(=O)c2ccnc(C(F)(F)F)c2)cc1-c1cnc(-n2ccc(=O)cc2)c(C#N)c1 [Example 119, N-(3-(3′-cyano-4-oxo-4H-[1,2′-bipyridin]-5′-yl)-4-methylphenyl)-2-(trifluoromethyl) isonicotinamide] | 1.65 nM | 12.2 nM
